Results reported in US9057727B2, “Screening methods using G-protein coupled receptors and related compositions” (The General Hospital Corporation, priority 2007, dated 2015).
Square brackets hold non-standard residues; d marks the D form. Ends that are not written are not given here. Peptide text beside a SMILES is read from it. hArg = N=C(N)NCCCC[C@H](N)C(=O)O; Aib = CC(C)(N)C(=O)O

Columns and labels:
human PTH1 receptor = molecular target: T1, human PTH1 receptor (Homo sapiens, UniProt Q03431); assay: cAMP signaling dose-response in HKRK-B7 cells; type: cell-based; conditions: 15 min, 37° C., IBMX
T1 construct: expressed in transfected cells
T1 sequence (Q03431 27-593): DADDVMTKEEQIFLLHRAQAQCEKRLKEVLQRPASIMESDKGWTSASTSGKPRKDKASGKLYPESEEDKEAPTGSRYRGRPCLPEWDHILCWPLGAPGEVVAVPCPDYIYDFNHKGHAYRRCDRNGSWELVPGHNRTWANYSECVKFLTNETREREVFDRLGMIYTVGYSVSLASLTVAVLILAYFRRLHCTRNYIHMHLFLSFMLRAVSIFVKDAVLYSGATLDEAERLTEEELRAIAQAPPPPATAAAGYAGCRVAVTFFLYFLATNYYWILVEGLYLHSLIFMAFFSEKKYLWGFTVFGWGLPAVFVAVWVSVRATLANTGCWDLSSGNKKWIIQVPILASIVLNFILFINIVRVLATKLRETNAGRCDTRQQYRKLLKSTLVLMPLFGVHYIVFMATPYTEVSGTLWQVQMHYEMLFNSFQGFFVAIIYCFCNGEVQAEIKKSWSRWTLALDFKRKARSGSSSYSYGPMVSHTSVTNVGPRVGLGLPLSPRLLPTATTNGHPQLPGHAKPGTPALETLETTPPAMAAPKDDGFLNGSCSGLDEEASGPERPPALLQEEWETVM
Procedure: In the cAMP experiments of FIG. 14, HKRK-B7 were seeded in 96 well plates at 1×10^5 cells/well and incubated overnight. On the following day, the cells were washed once with […] of binding buffer (50 mM Tris-HCl, pH 7.7, 100 mM NaCl, 5 mM KCl, 2 mM CaCl2, 5% heat-inactivated horse serum, 0.5% heat-inactivated fetal bovine serum), followed by addition of 100 μl cAMP assay buffer (DMEM, 2 mM IBMX, 1 mg/ml bovine serum albumin, 35 mM Hepes-NaOH, pH 7.4) on ice. […] After removing the medium, the plates were placed on powdered dry ice to freeze the cells and then removed from dry ice. The cells were thawed with 50 μl of 50 mM HCl and frozen again on dry ice. The level of intracellular cAMP was measured with a commercially available cAMP EIA kit (Biotrack cAMP EIA system, GE Healthcare).
HKRK-B, which are LLC-PK1 cells over-expressing human PTH1 receptor at levels of 9.5×10^5 per cell were used in the cAMP signaling assay. The cells were cultured at 37° C. in a humidified atmosphere containing 5% CO2 in Dulbecco's modified Eagle's medium (DMEM), supplemented with 10% fetal bovine serum (Hyclone), 100 units/ml penicillin G, and 100 μg/ml streptomycin sulfate (Invitrogen Corp). […] All peptides were dissolved at 1 mM in 10 mM acetic acid, and stored at −80° C. The cAMP stimulation assay was performed as described above for HKRK-B7 cells. […] Cells were treated for 15 minutes at 37° C. with varying concentrations of ligands in the presence of IBMX.

human PTH receptor = molecular target: T2, human PTH receptor (Homo sapiens, UniProt Q03431); assay: cAMP in HRKRK-B7 cells EC50 (nM)
T2 construct: expressed in transfected cells
From the text: Table printed on a drawing sheet, Figure 25
Head of the field: cAMP in HRKRK-B7 cells EC50 (nM)
First copying reader's note: The column head prints the cell line as HRKRK-B7 while the title prints HKRK-B7.

[1] = molecular target: hPTH1R (RG form of the human PTH receptor); assay: RG memb: hPTH1R+dnGS *M-PTH(1-15)
[2] = molecular target: T3, human PTHR, G protein-uncoupled conformation (R^0) (Homo sapiens, UniProt Q03431); assay: Competition binding to R0 conformation of hPTHR (COS-7 membranes, GTPγS, 125I-PTH(1-34) tracer); conditions: human PTH receptor on COS-7 cell membranes
T3 construct: expressed in transfected cells; host or cells: COS-7, transient (Fugene-6)
T3 sequence (Q03431 27-593): T1 sequence (Q03431 27-593)
Summary of the method: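 Membranes from hPTHR-transfected COS-7 cells (20-100 μg/mL protein) incubated 90 min with radioligand (~150,000 cpm/ml) and unlabeled ligands, then filtered. Specific binding expressed as % of binding without competitor.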

[3] = system: PTHR-CFPIC3/YFPCT (PTHR-cam); assay: FRET analysis of ligand binding/receptor activation in HEK-293 cells; type: cell-based, human

Row | Molecule | cAMP in HKRK-B7 cells Max (human PTH1 receptor) | reduction (magnitude) of FRET signal [3] | also measured
1 | CC[C@H](C)[C@H](NC(=O)[C@H](CCC(=O)O)NC(=O)[C@H](C)NC(=O)[C@@H](NC(=O)[C@H](Cc1c[nH]cn1)NC(=O)[C@@H](NC(=O)[C@H](CC(=O)O)NC(=O)[C@H](CCC(N)=O)NC(=O)[C@H](CC(C)C)NC(=O)[C@H](CCCCN)NC(=O)[C@H](CCCCN)NC(=O)[C@H](CCCNC(=N)N)NC(=O)[C@H](CC(C)C)NC(=O)[C@H](Cc1c[nH]c2ccccc12)NC(=O)[C@H](CCC(=O)O)NC(=O)[C@@H](NC(=O)[C@H](CCCNC(=N)N)NC(=O)[C@H](CCC(=O)O)NC(=O)[C@H](CCSC)NC(=O)[C@H](CO)NC(=O)[C@H](CC(N)=O)NC(=O)[C@H](CC(C)C)NC(=O)[C@H](Cc1c[nH]cn1)NC(=O)[C@H](CCCCN)NC(=O)CNC(=O)[C@H](CC(C)C)NC(=O)[C@H](CC(N)=O)NC(=O)[C@H](Cc1c[nH]cn1)NC(=O)[C@H](CCSC)NC(=O)[C@H](CC(C)C)NC(=O)[C@H](CCC(N)=O)NC(=O)[C@@H](NC(=O)[C@H](CCC(=O)O)NC(=O)[C@H](CO)NC(=O)[C@@H](NC(=O)[C@@H](N)CO)C(C)C)[C@@H](C)CC)C(C)C)[C@@H](C)CC)[C@@H](C)O)C(=O)O [PTH(1-30)/PTHrP(31-36)] | – | – | EC50 (human PTH receptor): 0.78 nM; IC50 [1]: 0.17 nM
2 | CC[C@H](C)[C@H](NC(=O)[C@H](CCC(=O)O)NC(=O)[C@H](C)NC(=O)[C@@H](NC(=O)[C@H](C)N)C(C)C)C(=O)N[C@@H](CCC(N)=O)C(=O)N[C@@H](CC(C)C)C(=O)N[C@@H](CCSC)C(=O)N[C@@H](Cc1c[nH]cn1)C(=O)N[C@@H](CCC(N)=O)C(=O)N[C@@H](CCCNC(=N)N)C(=O)NCC(=O)N[C@@H](CCCCN)C(=O)N[C@@H](Cc1c[nH]cn1)C(=O)N[C@@H](CC(C)C)C(=O)N[C@@H](CC(N)=O)C(=O)N[C@@H](CO)C(=O)N[C@@H](CCSC)C(=O)N[C@@H](CCC(=O)O)C(=O)N[C@@H](CCCNC(=N)N)C(=O)N[C@H](C(=O)N[C@@H](CCC(=O)O)C(=O)N[C@@H](C)C(=O)N[C@@H](CC(C)C)C(=O)N[C@@H](CCCNC(=N)N)C(=O)N[C@@H](CCCCN)C(=O)N[C@@H](CCCCN)C(=O)N[C@@H](CC(C)C)C(=O)N[C@@H](CCC(N)=O)C(=O)N[C@@H](CC(=O)O)C(=O)N[C@H](C(=O)N[C@@H](Cc1c[nH]cn1)C(=O)N[C@@H](CC(N)=O)C(=O)N[C@@H](Cc1ccccc1)C(=O)O)C(C)C)C(C)C [[A1,3,23,Q10,R11]-PTH(1-34)OH, [A^1,A^3,A^23,Q^10,R^11]-PTH(1-34)OH] | 63.8 pm/well | – | –
3 | CC[C@H](C)[C@H](NC(=O)[C@H](CCC(=O)O)NC(=O)[C@H](CO)NC(=O)[C@@H](NC(=O)[C@@H](N)CO)C(C)C)C(=O)N[C@@H](CCC(N)=O)C(=O)N[C@@H](CC(C)C)C(=O)N[C@@H](CCSC)C(=O)N[C@@H](Cc1c[nH]cn1)C(=O)N[C@@H](CC(N)=O)C(=O)N[C@@H](CC(C)C)C(=O)NCC(=O)N[C@@H](CCCCN)C(=O)N[C@@H](Cc1c[nH]cn1)C(=O)N[C@@H](CC(C)C)C(=O)N[C@@H](CC(N)=O)C(=O)N[C@@H](CO)C(=O)N[C@@H](CCSC)C(=O)N[C@@H](CCC(=O)O)C(=O)N[C@@H](CCCNC(=N)N)C(=O)N[C@H](C(=O)N[C@@H](CCC(=O)O)C(=O)N[C@@H](Cc1c[nH]c2ccccc12)C(=O)N[C@@H](CC(C)C)C(=O)N[C@@H](CCCNC(=N)N)C(=O)N[C@@H](CCCCN)C(=O)N[C@@H](CCCCN)C(=O)N[C@@H](CC(C)C)C(=O)N[C@@H](CCC(N)=O)C(=O)N[C@@H](CC(=O)O)C(=O)N[C@H](C(=O)N[C@@H](Cc1c[nH]cn1)C(=O)N[C@@H](CC(N)=O)C(=O)N[C@@H](Cc1ccccc1)C(=O)O)C(C)C)C(C)C [hPTH(1-34), Human parathyroid hormone (1-34)] | – | ~13% | FRET signal after exchange to ligand-free buffer, in words [3]: remained suppressed
4 | [Aib^1,3,Gln^10,Har^11,Ala^12,Trp^14]rPTH(1-14)NH2 ([Aib]V[Aib]EIQLMHQ[hArg]AKW-NH2; N-terminus assumed; SMILES CC[C@H](C)[C@H](NC(=O)[C@H](CCC(=O)O)NC(=O)C(C)(C)NC(=O)[C@@H](NC(=O)C(C)(C)N)C(C)C)C(=O)N[C@@H](CCC(N)=O)C(=O)N[C@@H](CC(C)C)C(=O)N[C@@H](CCSC)C(=O)N[C@@H](Cc1c[nH]cn1)C(=O)N[C@@H](CCC(N)=O)C(=O)N[C@@H](CCCCNC(=N)N)C(=O)N[C@@H](C)C(=O)N[C@@H](CCCCN)C(=O)N[C@@H](Cc1c[nH]c2ccccc12)C(N)=O) [[Aib^1,3,M]PTH(1-14)] | – | ~5% | –

Further lines, with some results ahead:

Row | cAMP in HKRK-B7 cells Max (human PTH1 receptor) | Molecule | reduction (magnitude) of FRET signal [3] | also measured
5 | 65.5 pm/well | CC[C@H](C)[C@H](NC(=O)[C@H](CCC(=O)O)NC(=O)[C@H](C)NC(=O)[C@@H](NC(=O)[C@H](C)N)C(C)C)C(=O)N[C@@H](CCC(N)=O)C(=O)N[C@@H](CC(C)C)C(=O)N[C@@H](CCSC)C(=O)N[C@@H](Cc1c[nH]cn1)C(=O)N[C@@H](CCC(N)=O)C(=O)N[C@@H](CCCNC(=N)N)C(=O)N[C@@H](C)C(=O)N[C@@H](CCCCN)C(=O)N[C@@H](Cc1c[nH]c2ccccc12)C(=O)N[C@@H](CC(C)C)C(=O)N[C@@H](CC(N)=O)C(=O)N[C@@H](CO)C(=O)N[C@@H](CCSC)C(=O)N[C@@H](CCCNC(=N)N)C(=O)N[C@@H](CCCNC(=N)N)C(=O)N[C@H](C(=O)N[C@@H](CCC(=O)O)C(=O)N[C@@H](Cc1c[nH]c2ccccc12)C(=O)N[C@@H](CC(C)C)C(=O)N[C@@H](CCCNC(=N)N)C(=O)N[C@@H](CCCCN)C(=O)N[C@@H](CCCCN)C(=O)N[C@@H](CC(C)C)C(=O)N[C@@H](CCC(N)=O)C(=O)N[C@@H](CC(=O)O)C(=O)N[C@H](C(=O)N[C@@H](Cc1c[nH]cn1)C(=O)N[C@@H](CC(N)=O)C(=O)N[C@@H](Cc1ccccc1)C(=O)O)C(C)C)C(C)C [Mc-PTH34(R19), Mc-hPTH(1-34)OH] (H-AVAEIQLMHQRAKWLNSMRRVEWLRKKLQDVHNF-OH; N-terminus assumed) | – | –
6 | 66.6 pm/well | CC[C@H](C)[C@H](NC(=O)[C@H](CCC(=O)O)NC(=O)[C@H](C)NC(=O)[C@@H](NC(=O)[C@H](C)N)C(C)C)C(=O)N[C@@H](CCC(N)=O)C(=O)N[C@@H](CC(C)C)C(=O)N[C@@H](CCSC)C(=O)N[C@@H](Cc1c[nH]cn1)C(=O)N[C@@H](CC(N)=O)C(=O)N[C@@H](CC(C)C)C(=O)NCC(=O)N[C@@H](CCCCN)C(=O)N[C@@H](Cc1c[nH]cn1)C(=O)N[C@@H](CC(C)C)C(=O)N[C@@H](CC(N)=O)C(=O)N[C@@H](CO)C(=O)N[C@@H](CCSC)C(=O)N[C@@H](CCC(=O)O)C(=O)N[C@@H](CCCNC(=N)N)C(=O)N[C@H](C(=O)N[C@@H](CCC(=O)O)C(=O)N[C@@H](C)C(=O)N[C@@H](CC(C)C)C(=O)N[C@@H](CCCNC(=N)N)C(=O)N[C@@H](CCCCN)C(=O)N[C@@H](CCCCN)C(=O)N[C@@H](CC(C)C)C(=O)N[C@@H](CCC(N)=O)C(=O)N[C@@H](CC(=O)O)C(=O)N[C@H](C(=O)N[C@@H](Cc1c[nH]cn1)C(=O)N[C@@H](CC(N)=O)C(=O)N[C@@H](Cc1ccccc1)C(=O)O)C(C)C)C(C)C [[A1,3,23]-PTH(1-34)OH, [A^1,A^3,A^23]-PTH(1-34)OH] (H-AVAEIQLMHNLGKHLNSMERVEALRKKLQDVHNF-OH; N-terminus assumed) | – | R0/RG ratio [2]: 4291
